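Where inhibition never reached the appropriate level, the endpoint shown equals the highest concentration tested. Otherwise, values were interpolated linearly from a five-concentration, 48-hour dose response in 96-well plates. GI50: concentration for 50% inhibition of growth. TGI: concentration producing complete growth inhibition.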

Among the test systems are HS 578T breast; HT29 colon; K-562 leukemia; KM12 colon; OVCAR-8 ovarian; SF-295 CNS; SK-MEL-5 melanoma; SK-OV-3 ovarian.
Assay in all cases: NCI tumour cell line growth inhibition, 48 h

In the case of `CC(=O)OC1=CC2=CC[C@H]3[C@@H]4CCC(=O)[C@@]4(C)CC(=O)[C@]3(S)[C@@]2(C)CC1`, the TGI with HS 578T breast was 74.6 µM; with HT29 colon it was above 100 µM; in the assay on K-562 leukemia it was 76.7 µM; in the assay with KM12 colon, above 100 µM; in the assay with OVCAR-8 ovarian, above 100 µM; in the assay with SF-295 CNS, above 100 µM. Besides, the TGI in the assay with SK-MEL-5 melanoma and with SK-OV-3 ovarian was above 100 µM throughout.
On to `COc1ccc(S(=O)(=O)NC2=NCCN2C(=S)SN2CCn3c2nsc3=S)cc1`, for which the GI50 with HS 578T breast is 20.8 µM; in the assay on HT29 colon, 32.4 µM; in the assay on K-562 leukemia it was 28.1 µM; in the assay on KM12 colon, 18.7 µM; in the assay with OVCAR-8 ovarian, 27.3 µM; with SF-295 CNS, 20.8 µM. The GI50 with SK-MEL-5 melanoma was 17.8 µM. Besides, the TGI was 54.2 µM in the assay with HS 578T breast; above 100 µM in the assay on HT29 colon; above 100 µM in the assay on K-562 leukemia; 37.7 µM with KM12 colon; above 100 µM with OVCAR-8 ovarian; 53.6 µM with SF-295 CNS. Also, the TGI in the assay on SK-MEL-5 melanoma is 31.7 µM.
On to `O=C(O)C1CC2(C1)CC(C(=O)O)C2` (configuration not stated), for which the TGI with HS 578T breast, in the assay on HT29 colon, with K-562 leukemia, in the assay on KM12 colon, in the assay with SF-295 CNS and with SK-MEL-5 melanoma was above 100 µM throughout. This compound also returned a TGI with SK-OV-3 ovarian above 100 µM.
In the case of `CCCCC(C)C(OC(=O)CC(CC(=O)O)C(=O)O)C(CC(C)CC(O)CCCCC(O)CC(O)C(C)N)OC(=O)CC(CC(=O)O)C(=O)O` (configuration not stated), the TGI in the assay with HT29 colon, in the assay with K-562 leukemia, with KM12 colon, in the assay with OVCAR-8 ovarian, with SF-295 CNS and with SK-MEL-5 melanoma was above 100 µM throughout. In the assay with SK-OV-3 ovarian, this compound yielded a TGI above 100 µM.
`Oc1ccc(O)c(-c2cc(-c3ccc(Cl)cc3)nn2-c2ccccc2)c1`: the GI50 was 3.43 µM with HS 578T breast; 3.23 µM with K-562 leukemia; 4.14 µM with KM12 colon; 4.51 µM in the assay on OVCAR-8 ovarian; 20 µM in the assay with SF-295 CNS; 10.1 µM with SK-MEL-5 melanoma. In addition, the TGI with HS 578T breast is 29.8 µM; in the assay on K-562 leukemia, 12.1 µM; in the assay with KM12 colon, 18.4 µM; in the assay on OVCAR-8 ovarian it was above 100 µM; in the assay with SF-295 CNS, 39.2 µM; in the assay with SK-MEL-5 melanoma, 28.8 µM.
Turning to `Brc1ccc2[nH]cc(-c3nc(-c4c[nH]c5ncccc45)cs3)c2c1`, the GI50 in the assay on HS 578T breast was 10.7 µM; with K-562 leukemia it was 2.71 µM; in the assay with KM12 colon, 2.92 µM; with OVCAR-8 ovarian it was 4.07 µM; in the assay on SF-295 CNS, 2.74 µM; in the assay on SK-MEL-5 melanoma it was 2.97 µM. In addition, the GI50 in the assay with SK-OV-3 ovarian was 5.71 µM. For the same compound, the TGI was above 100 µM with HS 578T breast; above 100 µM in the assay with K-562 leukemia; 10.4 µM in the assay with KM12 colon; above 100 µM in the assay on OVCAR-8 ovarian; 7.31 µM in the assay with SF-295 CNS; 12.9 µM in the assay with SK-MEL-5 melanoma. Besides, the TGI in the assay on SK-OV-3 ovarian worked out at 20.4 µM.
With `O=[N+]([O-])c1ccc(Oc2nc(Nc3ccc(O[C@H]4CO[C@H]5[C@@H]4OC[C@@H]5O)c(Cl)c3)ncc2F)c(Cl)c1`, the GI50 was 0.516 µM in the assay on HS 578T breast; 2.43 µM with HT29 colon; 1.31 µM with K-562 leukemia; 0.41 µM in the assay with KM12 colon; 1.21 µM in the assay with OVCAR-8 ovarian; 1.39 µM in the assay with SF-295 CNS. Besides, the GI50 with SK-MEL-5 melanoma is 1.29 µM. Moreover, the TGI in the assay on HS 578T breast is 3.43 µM; in the assay on HT29 colon, 11.7 µM; in the assay on K-562 leukemia it was 13.3 µM; with KM12 colon it was 2.22 µM; in the assay with OVCAR-8 ovarian, above 100 µM; with SF-295 CNS, 2.92 µM. This compound also came in with a TGI in the assay on SK-MEL-5 melanoma of 2.59 µM.
Take `CC(=O)c1c(CN(C)c2ccccc2)n([O-])c2ccccc2[n+]1=O`: the GI50 in the assay with HS 578T breast was 50.7 µM; with HT29 colon, 20.4 µM; in the assay on K-562 leukemia, 28.6 µM; in the assay with KM12 colon it was 29.6 µM; in the assay on OVCAR-8 ovarian it was 43.1 µM; in the assay with SK-MEL-5 melanoma, 16 µM. Further, the GI50 in the assay on SK-OV-3 ovarian was 31.8 µM. For the same compound, the TGI with HS 578T breast is above 100 µM; in the assay on HT29 colon, 49.2 µM; in the assay with K-562 leukemia it was above 100 µM; with KM12 colon, above 100 µM; with OVCAR-8 ovarian, above 100 µM; in the assay on SK-MEL-5 melanoma, 42.4 µM. In the assay on SK-OV-3 ovarian, this compound returned a TGI of 70 µM.
With `Nc1cc(O)ccc1N=Nc1ccc(-c2nc3ccccc3[nH]2)cc1`, the GI50 was 72.1 µM in the assay on HS 578T breast; 23 µM with K-562 leukemia; 5.07 µM with KM12 colon; 10.7 µM in the assay on OVCAR-8 ovarian; 16.8 µM with SF-295 CNS; 38.8 µM in the assay on SK-MEL-5 melanoma. In addition, the GI50 in the assay with SK-OV-3 ovarian was above 100 µM. Further, the TGI is above 100 µM in the assay on HS 578T breast; above 100 µM in the assay with K-562 leukemia; above 100 µM in the assay with KM12 colon; 52.5 µM in the assay with OVCAR-8 ovarian; above 100 µM in the assay with SF-295 CNS; above 100 µM in the assay with SK-MEL-5 melanoma. For the same compound, the TGI in the assay on SK-OV-3 ovarian was above 100 µM.
On to `COc1cc(-c2cc(-c3ccc(Nc4ccnc5cc(Cl)ccc45)cc3)nc(N3CCOCC3)n2)cc(OC)c1OC`, for which the GI50 with HS 578T breast is 2.25 µM; with HT29 colon it was 1.97 µM; in the assay on K-562 leukemia, 0.882 µM; with OVCAR-8 ovarian it was 2.12 µM; with SF-295 CNS, 1.95 µM; in the assay with SK-MEL-5 melanoma, 3.5 µM. The GI50 in the assay on SK-OV-3 ovarian was 14.9 µM. Further, the TGI is 5.35 µM with HS 578T breast; 4.61 µM in the assay with HT29 colon; 10.4 µM in the assay on K-562 leukemia; 4.7 µM in the assay on OVCAR-8 ovarian; 4.12 µM in the assay on SF-295 CNS; above 100 µM in the assay with SK-MEL-5 melanoma. The compound also returned a TGI in the assay on SK-OV-3 ovarian of 31.7 µM.
Take `Cc1cc(S(=O)(=O)/N=C/N(C)C)c(SC(=O)c2ccc(Cl)cc2)cc1Cl`: the GI50 is 20.7 µM in the assay with HS 578T breast; 46.5 µM with K-562 leukemia; 39.1 µM with KM12 colon; 40.9 µM in the assay with OVCAR-8 ovarian; 50.9 µM in the assay with SF-295 CNS; 10.8 µM in the assay on SK-MEL-5 melanoma. In addition, the GI50 in the assay on SK-OV-3 ovarian was above 100 µM. For the same compound, the TGI is 65 µM with HS 578T breast; above 100 µM with K-562 leukemia; above 100 µM in the assay with KM12 colon; above 100 µM in the assay with OVCAR-8 ovarian; above 100 µM with SF-295 CNS; 36.5 µM with SK-MEL-5 melanoma. The compound also returned a TGI in the assay with SK-OV-3 ovarian above 100 µM.
In the case of `COC(=O)C1OC2(CCCC3CC32)O[C@H]1C(=O)OC` (some centres not stated), the TGI in the assay with HS 578T breast, in the assay with HT29 colon, with K-562 leukemia, in the assay with KM12 colon, in the assay with OVCAR-8 ovarian and with SF-295 CNS was above 100 µM throughout. The compound further displayed a TGI in the assay with SK-OV-3 ovarian above 100 µM.
`COc1cc2c(cc1OC)C(Sc1ccc(SC)cc1)c1c(nc(N)c(C#N)c1N)O2` (configuration not stated): the GI50 with HS 578T breast is 2.01 µM; in the assay on K-562 leukemia it was 1.74 µM; in the assay with KM12 colon it was 1.81 µM; in the assay on OVCAR-8 ovarian, 1.93 µM; in the assay on SF-295 CNS it was 1.63 µM; in the assay on SK-MEL-5 melanoma, 1.69 µM. For the same compound, in the assay with SK-OV-3 ovarian, the GI50 is 1.88 µM. In addition, the TGI in the assay with HS 578T breast came out at 4.52 µM; with K-562 leukemia it was 5.59 µM; in the assay with KM12 colon, 3.46 µM; in the assay with OVCAR-8 ovarian it was 3.47 µM; in the assay with SF-295 CNS, 3.01 µM; in the assay with SK-MEL-5 melanoma, 3.07 µM. The TGI in the assay on SK-OV-3 ovarian amounted to 3.31 µM.
In the case of `Clc1ccc(-c2csc(Nc3cccc(-c4csc(-c5ccccc5)n4)c3)n2)cc1`, the GI50 in the assay on HS 578T breast is 20.6 µM; with K-562 leukemia, 7.11 µM; in the assay on KM12 colon it was 15.7 µM; with OVCAR-8 ovarian, 14.6 µM; in the assay on SF-295 CNS, 15.9 µM; in the assay with SK-MEL-5 melanoma, 8.95 µM. Moreover, in the assay with SK-OV-3 ovarian, the GI50 is 25.3 µM. The TGI in the assay with HS 578T breast was above 50 µM; with K-562 leukemia it was 16.3 µM; in the assay with KM12 colon it was above 50 µM; in the assay with OVCAR-8 ovarian, 39 µM; in the assay on SF-295 CNS it was above 50 µM; in the assay on SK-MEL-5 melanoma, 18.9 µM. Moreover, the TGI in the assay on SK-OV-3 ovarian was above 50 µM.
Take `COc1ccc2c(c1)CC[C@@H]1[C@@H]2CC[C@]2(C)[C@@H](NC(=O)/C=C/c3ccc(O)c(O)c3)CC[C@@H]12`: the GI50 in the assay with HS 578T breast was 18.5 µM; with HT29 colon it was 4.74 µM; with KM12 colon it was 2.28 µM; with OVCAR-8 ovarian, 4.2 µM; with SF-295 CNS, 12.8 µM; in the assay with SK-MEL-5 melanoma it was 3.86 µM. Besides, in the assay on SK-OV-3 ovarian, the GI50 is 11.5 µM. In addition, the TGI was 58.4 µM in the assay with HS 578T breast; above 100 µM in the assay with HT29 colon; 5.88 µM in the assay on KM12 colon; 16.7 µM with OVCAR-8 ovarian; 27.1 µM in the assay on SF-295 CNS; 16.4 µM in the assay on SK-MEL-5 melanoma. This compound came in with a TGI in the assay on SK-OV-3 ovarian of 27.1 µM.
For `COC(=O)C(=CNC(N)=O)C(=O)OC`, the TGI with HS 578T breast, in the assay on HT29 colon, in the assay on K-562 leukemia, with KM12 colon, with OVCAR-8 ovarian and with SF-295 CNS was above 100 µM throughout. Moreover, in the assay on SK-MEL-5 melanoma, the TGI is above 100 µM.
For the compound `COc1cccc(-c2ccc3c(c2)C2CCN(Cc4ccccc4)C3C2)c1` (configuration not stated), the GI50 with HS 578T breast was 8.64 µM; with HT29 colon it was 3.24 µM; with KM12 colon, 5.14 µM; in the assay with OVCAR-8 ovarian it was 11.2 µM; in the assay with SF-295 CNS, 4.08 µM; in the assay with SK-MEL-5 melanoma it was 3.51 µM. Also, the GI50 with SK-OV-3 ovarian is 14.8 µM. For the same compound, the TGI in the assay on HS 578T breast was determined as 31 µM; in the assay on HT29 colon, 12.2 µM; in the assay with KM12 colon, 21.6 µM; in the assay with OVCAR-8 ovarian, 32.5 µM; in the assay with SF-295 CNS, 20.9 µM; in the assay on SK-MEL-5 melanoma it was 14.7 µM. In addition, the TGI in the assay with SK-OV-3 ovarian was 48.8 µM.

Source of the values: PubChem BioAssay (NCI).
